Experimental data reported in ChEMBL document CHEMBL5370556, “Optimization, and biological evaluation of 3-O-β-chacotriosyl betulinic acid amide derivatives as novel small-molecule Omicron” (Eur J Med Chem, 2023).
pEC50: −log10 of the molar value.

Legend:
SARS-CoV-2 = assay: Antiviral activity against luciferase-expressing pseudovirus encoding SARS-CoV-2 Omicron expressing S protein infected in human 293T/ACE2 cells assessed as reduction of viral growth measured after 48 hrs by luciferase assay; type: functional, organism-based; conditions: Severe acute respiratory syndrome coronavirus 2, 293T/ACE2, 48 h
[1] = Selectivity index, ratio of CC50 for human 293T/ACE2 cells to EC50 for SARS-CoV-2 Omicron; type: toxicity; conditions: read-out: Ratio CC50/EC50
[2] = Cytotoxicity against human 293T/ACE2 cells assessed as reduction in cell growth measured after 48 hrs by MTT assay; type: functional

Row | Structure (SMILES) | pEC50 (SARS-CoV-2) | selectivity ratio [1] | CC50 [2] [µM]
1 | C=C(C)[C@@H]1CC[C@]2(C(=O)NCc3ccco3)CC[C@]3(C)[C@H](CC[C@@H]4[C@@]5(C)CC[C@H](O[C@@H]6O[C@H](CO)[C@@H](O[C@@H]7O[C@@H](C)[C@H](O)[C@@H](O)[C@H]7O)[C@H](O)[C@H]6O[C@@H]6O[C@@H](C)[C@H](O)[C@@H](O)[C@H]6O)C(C)(C)[C@@H]5CC[C@]43C)[C@@H]12 | < 4.70 |  | 
2 | C=C(C)[C@@H]1CC[C@]2(C(=O)N(C)c3ccccc3)CC[C@]3(C)[C@H](CC[C@@H]4[C@@]5(C)CC[C@H](O[C@@H]6O[C@H](CO)[C@@H](O[C@@H]7O[C@@H](C)[C@H](O)[C@@H](O)[C@H]7O)[C@H](O)[C@H]6O[C@@H]6O[C@@H](C)[C@H](O)[C@@H](O)[C@H]6O)C(C)(C)[C@@H]5CC[C@]43C)[C@@H]12 | 5.30 | 13.7 | 69.5
3 | C=C(C)[C@@H]1CC[C@]2(C(=O)NCc3ccc(Cl)cc3)CC[C@]3(C)[C@H](CC[C@@H]4[C@@]5(C)CC[C@H](O[C@@H]6O[C@H](CO)[C@@H](O[C@@H]7O[C@@H](C)[C@H](O)[C@@H](O)[C@H]7O)[C@H](O)[C@H]6O[C@@H]6O[C@@H](C)[C@H](O)[C@@H](O)[C@H]6O)C(C)(C)[C@@H]5CC[C@]43C)[C@@H]12 | < 4.70 |  | 
4 | C=C(C)[C@@H]1CC[C@]2(C(=O)NCc3ccccc3)CC[C@]3(C)[C@H](CC[C@@H]4[C@@]5(C)CC[C@H](O[C@@H]6O[C@H](CO)[C@@H](O[C@@H]7O[C@@H](C)[C@H](O)[C@@H](O)[C@H]7O)[C@H](O)[C@H]6O[C@@H]6O[C@@H](C)[C@H](O)[C@@H](O)[C@H]6O)C(C)(C)[C@@H]5CC[C@]43C)[C@@H]12 | 5.26 | 44.9 | 248
5 | C=C(C)[C@@H]1CC[C@]2(C(=O)Nc3cccc(OC)c3)CC[C@]3(C)[C@H](CC[C@@H]4[C@@]5(C)CC[C@H](O[C@@H]6O[C@H](CO)[C@@H](O[C@@H]7O[C@@H](C)[C@H](O)[C@@H](O)[C@H]7O)[C@H](O)[C@H]6O[C@@H]6O[C@@H](C)[C@H](O)[C@@H](O)[C@H]6O)C(C)(C)[C@@H]5CC[C@]43C)[C@@H]12 | 5.56 | 26.9 | 73.3
6 | C=C(C)[C@@H]1CC[C@]2(C(=O)NCC3CCCCC3)CC[C@]3(C)[C@H](CC[C@@H]4[C@@]5(C)CC[C@H](O[C@@H]6O[C@H](CO)[C@@H](O[C@@H]7O[C@@H](C)[C@H](O)[C@@H](O)[C@H]7O)[C@H](O)[C@H]6O[C@@H]6O[C@@H](C)[C@H](O)[C@@H](O)[C@H]6O)C(C)(C)[C@@H]5CC[C@]43C)[C@@H]12 | < 4.70 |  | 
7 | C=C(C)[C@@H]1CC[C@]2(C(=O)OC)CC[C@]3(C)[C@H](CC[C@@H]4[C@@]5(C)CC[C@H](O[C@@H]6O[C@H](CO)[C@@H](O[C@@H]7O[C@@H](C)[C@H](O)[C@@H](O)[C@H]7O)[C@H](O)[C@H]6O[C@@H]6O[C@@H](C)[C@H](O)[C@@H](O)[C@H]6O)C(C)(C)[C@@H]5CC[C@]43C)[C@@H]12 | 5.15 | 5.8 | 40.9
8 | C=C(C)[C@@H]1CC[C@]2(C(=O)NCc3ccccc3OC)CC[C@]3(C)[C@H](CC[C@@H]4[C@@]5(C)CC[C@H](O[C@@H]6O[C@H](CO)[C@@H](O[C@@H]7O[C@@H](C)[C@H](O)[C@@H](O)[C@H]7O)[C@H](O)[C@H]6O[C@@H]6O[C@@H](C)[C@H](O)[C@@H](O)[C@H]6O)C(C)(C)[C@@H]5CC[C@]43C)[C@@H]12 | < 4.70 |  | 
9 | C=C(C)[C@@H]1CC[C@]2(C(=O)NCc3ccc(OC)cc3)CC[C@]3(C)[C@H](CC[C@@H]4[C@@]5(C)CC[C@H](O[C@@H]6O[C@H](CO)[C@@H](O[C@@H]7O[C@@H](C)[C@H](O)[C@@H](O)[C@H]7O)[C@H](O)[C@H]6O[C@@H]6O[C@@H](C)[C@H](O)[C@@H](O)[C@H]6O)C(C)(C)[C@@H]5CC[C@]43C)[C@@H]12 | < 4.70 |  | 
10 | C=C(C)[C@@H]1CC[C@]2(C(=O)Nc3ccccc3Cl)CC[C@]3(C)[C@H](CC[C@@H]4[C@@]5(C)CC[C@H](O[C@@H]6O[C@H](CO)[C@@H](O[C@@H]7O[C@@H](C)[C@H](O)[C@@H](O)[C@H]7O)[C@H](O)[C@H]6O[C@@H]6O[C@@H](C)[C@H](O)[C@@H](O)[C@H]6O)C(C)(C)[C@@H]5CC[C@]43C)[C@@H]12 | 5.27 | 8.7 | 47.1
11 | C=C(C)[C@@H]1CC[C@]2(C(=O)Nc3ccc(-c4ccccc4)cc3)CC[C@]3(C)[C@H](CC[C@@H]4[C@@]5(C)CC[C@H](O[C@@H]6O[C@H](CO)[C@@H](O[C@@H]7O[C@@H](C)[C@H](O)[C@@H](O)[C@H]7O)[C@H](O)[C@H]6O[C@@H]6O[C@@H](C)[C@H](O)[C@@H](O)[C@H]6O)C(C)(C)[C@@H]5CC[C@]43C)[C@@H]12 | 5.07 | 11.9 | 100
12 | C=C(C)[C@@H]1CC[C@]2(C(=O)NNCc3ccccc3)CC[C@]3(C)[C@H](CC[C@@H]4[C@@]5(C)CC[C@H](O[C@@H]6O[C@H](CO)[C@@H](O[C@@H]7O[C@@H](C)[C@H](O)[C@@H](O)[C@H]7O)[C@H](O)[C@H]6O[C@@H]6O[C@@H](C)[C@H](O)[C@@H](O)[C@H]6O)C(C)(C)[C@@H]5CC[C@]43C)[C@@H]12 | < 4.70 |  | 
13 | C=C(C)[C@@H]1CC[C@]2(C(=O)NCc3ccccc3Cl)CC[C@]3(C)[C@H](CC[C@@H]4[C@@]5(C)CC[C@H](O[C@@H]6O[C@H](CO)[C@@H](O[C@@H]7O[C@@H](C)[C@H](O)[C@@H](O)[C@H]7O)[C@H](O)[C@H]6O[C@@H]6O[C@@H](C)[C@H](O)[C@@H](O)[C@H]6O)C(C)(C)[C@@H]5CC[C@]43C)[C@@H]12 | < 4.70 |  | 
14 | C=C(C)[C@@H]1CC[C@]2(C(=O)NCc3cccs3)CC[C@]3(C)[C@H](CC[C@@H]4[C@@]5(C)CC[C@H](O[C@@H]6O[C@H](CO)[C@@H](O[C@@H]7O[C@@H](C)[C@H](O)[C@@H](O)[C@H]7O)[C@H](O)[C@H]6O[C@@H]6O[C@@H](C)[C@H](O)[C@@H](O)[C@H]6O)C(C)(C)[C@@H]5CC[C@]43C)[C@@H]12 | 5.21 | 6.81 | 41.9
15 | C=C(C)[C@@H]1CC[C@]2(C(=O)NCc3cccc(Cl)c3)CC[C@]3(C)[C@H](CC[C@@H]4[C@@]5(C)CC[C@H](O[C@@H]6O[C@H](CO)[C@@H](O[C@@H]7O[C@@H](C)[C@H](O)[C@@H](O)[C@H]7O)[C@H](O)[C@H]6O[C@@H]6O[C@@H](C)[C@H](O)[C@@H](O)[C@H]6O)C(C)(C)[C@@H]5CC[C@]43C)[C@@H]12 | < 4.70 |  | 
16 | C=C(C)[C@@H]1CC[C@]2(C(=O)Nc3ccc4sccc4c3)CC[C@]3(C)[C@H](CC[C@@H]4[C@@]5(C)CC[C@H](O[C@@H]6O[C@H](CO)[C@@H](O[C@@H]7O[C@@H](C)[C@H](O)[C@@H](O)[C@H]7O)[C@H](O)[C@H]6O[C@@H]6O[C@@H](C)[C@H](O)[C@@H](O)[C@H]6O)C(C)(C)[C@@H]5CC[C@]43C)[C@@H]12 | < 4.70 |  | 
17 | C=C(C)[C@@H]1CC[C@]2(C(=O)Nc3ccc4c(cnn4C)c3)CC[C@]3(C)[C@H](CC[C@@H]4[C@@]5(C)CC[C@H](O[C@@H]6O[C@H](CO)[C@@H](O[C@@H]7O[C@@H](C)[C@H](O)[C@@H](O)[C@H]7O)[C@H](O)[C@H]6O[C@@H]6O[C@@H](C)[C@H](O)[C@@H](O)[C@H]6O)C(C)(C)[C@@H]5CC[C@]43C)[C@@H]12 | < 4.70 |  | 
18 | C=C(C)[C@@H]1CC[C@]2(C(=O)Nc3cccc(Cl)c3)CC[C@]3(C)[C@H](CC[C@@H]4[C@@]5(C)CC[C@H](O[C@@H]6O[C@H](CO)[C@@H](O[C@@H]7O[C@@H](C)[C@H](O)[C@@H](O)[C@H]7O)[C@H](O)[C@H]6O[C@@H]6O[C@@H](C)[C@H](O)[C@@H](O)[C@H]6O)C(C)(C)[C@@H]5CC[C@]43C)[C@@H]12 | 5.18 | 8.51 | 56.4
19 | C=C(C)[C@@H]1CC[C@]2(C(=O)NOc3ccccc3)CC[C@]3(C)[C@H](CC[C@@H]4[C@@]5(C)CC[C@H](O[C@@H]6O[C@H](CO)[C@@H](O[C@@H]7O[C@@H](C)[C@H](O)[C@@H](O)[C@H]7O)[C@H](O)[C@H]6O[C@@H]6O[C@@H](C)[C@H](O)[C@@H](O)[C@H]6O)C(C)(C)[C@@H]5CC[C@]43C)[C@@H]12 | 5.01 | 11.7 | 116
20 | C=C(C)[C@@H]1CC[C@]2(C(=O)NCc3cccc(OC)c3)CC[C@]3(C)[C@H](CC[C@@H]4[C@@]5(C)CC[C@H](O[C@@H]6O[C@H](CO)[C@@H](O[C@@H]7O[C@@H](C)[C@H](O)[C@@H](O)[C@H]7O)[C@H](O)[C@H]6O[C@@H]6O[C@@H](C)[C@H](O)[C@@H](O)[C@H]6O)C(C)(C)[C@@H]5CC[C@]43C)[C@@H]12 | < 4.70 |  | 
21 | C=C(C)[C@@H]1CC[C@]2(C(=O)NCc3ccc(-c4ccccc4)cc3)CC[C@]3(C)[C@H](CC[C@@H]4[C@@]5(C)CC[C@H](O[C@@H]6O[C@H](CO)[C@@H](O[C@@H]7O[C@@H](C)[C@H](O)[C@@H](O)[C@H]7O)[C@H](O)[C@H]6O[C@@H]6O[C@@H](C)[C@H](O)[C@@H](O)[C@H]6O)C(C)(C)[C@@H]5CC[C@]43C)[C@@H]12 | < 4.70 |  | 
22 | C=C(C)[C@@H]1CC[C@]2(C(=O)NNc3ccccc3)CC[C@]3(C)[C@H](CC[C@@H]4[C@@]5(C)CC[C@H](O[C@@H]6O[C@H](CO)[C@@H](O[C@@H]7O[C@@H](C)[C@H](O)[C@@H](O)[C@H]7O)[C@H](O)[C@H]6O[C@@H]6O[C@@H](C)[C@H](O)[C@@H](O)[C@H]6O)C(C)(C)[C@@H]5CC[C@]43C)[C@@H]12 | < 4.70 |  | 
